# Tests used:
# [1] = Plasma pharmacokinetics of raf ODN after i.v. injection; assay type: in vivo, Balb/c nu/nu mice; settings: 30 mg/kg i.v.
# Experimental: FIG. 3: The plasma concentration-time profile of LE-ATG-AS raf ODN (SEQ ID NO:1), 30 mg/kg LE-ATG-AS raf ODN (SEQ ID NO:1) (top panel) or TG-AS raf ODN (SEQ ID NO:1) (middle panel) was administered […]. in […] nu/nu mice. Blood samples were collected from retro-orbital sinus as indicated times after injection and the ODNs in plasma samples were extracted and analyzed by denaturing gel electrophoresis as explained in the experimental procedures. St standards prepared by spiking known amounts of ATG-AS raf ODN (SEQ ID NO:1) in blank plasma. Top panel: Samples were diluted before electrophoresis as follows: lane 1, 12×; lanes 2 and 3, 4×; lanes 4 and 5, 3.3×; lane 6, 2×; lane 7, 1.4×; lane 8, 1.3×; and lane 9, I×. […] Additional standards (1.4 to >2 log range) were used to determine ODN concentration over a 24 hour period (data not shown). Middle panel: Samples were diluted before loading as follows: lane 1, 4×, lanes 2 and 3, 2×, lanes 4, 5 and 6, I×; lane 7, 0.75×, lanes 8 and […], 0.6×. […]
# The extracts were loaded on to 20% polyacrylamide/3 M urea gels and electrophoresed in TBE buffer. […] The autoradiographs were scanned using a computer program (ImageQuant software, Molecular Dynamics, Sunnyvale, Calif., and USA), and the amounts of ATG-AS raf ODN (SEQ ID NO:1) in various samples were calculated by comparison to standards.
# SQ-20B tumor cells = assay: Intracellular stability of antisense raf ODN in DMTAP:PC:CHOL liposomes; assay type: cell-based, human; settings: 10 μM, 4 hours, 1% serum
# Experimental: Stability experiments: SQ-20B tumor cells were incubated with a mixture of radiolabeled-(^32P-γATP) and 10 μM of unlabeled antisense raf oligonucleotide (ATG-AS (SEQ ID NO:1)) either in the liposome encapsulated form (LE-ATG-AS (SEQ ID NO:1)) (FIG. 19, Lane 1) or free form (ATG-AS (SEQ ID NO:1)) (FIG. 19, lane 2). The treatment lasted for 4 hours at 37° C. in 1% serum containing medium. Immediately following incubation, cells were washed with phosphate buffered saline (PBS), detached by trypsinization, and collected by centrifugation. The cell pellet was washed twice with PBS, and cells were then lysed in 10 mM Tris-HCl, 200 mM NaCl, 1% SDS, 200 μg/ml proteinase K, pH 7.4 for 2 hours at 37° C. Oligos were extracted with phenol:chloroform, and aqueous fraction was collected. The samples were normalized for equal radioactivity, and analyzed hy denaturing gel electrophoresis (15% polyacrylamide/7M urea), followed by autoradiography. […]
# Stability experiments: SQ-20B tumor cells were incubated with a mixture of radiolabeled (^32P-γATP) and 10 μM of unlabeled antisense raf oligonucleotide (ATG-AS (SEQ ID NO:1)) in the liposome encapsulated form (LE-ATG-AS (SEQ ID NO:1)). […] The samples were normalized for equal radioactivity, and analyzed by denaturing gel electrophoresis (15% polyacrylamide/7M urea), followed by autoradiography. […]
# SQ-20B cells = settings: free ODN 100 μM, 1% serum, previously demonstrated, cited from earlier work
substance,measurement,setting,value
"5′-GTG-CTCCATTGATGC-3′ (antisense GTGCTCCATTGATGC; DNA, linkages s1 o12 s1 (s phosphorothioate, o phosphodiester), methylation of C not given here) [ATG-AS raf ODN, antisense ODN to translation initiation site of human c-raf-1 cDNA; one terminal base linkage at each end phosphorothioate]",plasma concentration,[1]; at 5 min,9.75 µg/mL
same,only time at which intact ODN detectable in plasma,[1]; free ODN,5 min
same,integrity of oligonucleotide in treated cells,SQ-20B tumor cells,degraded form
same,ODN taken up by SQ-20B cells,SQ-20B cells; at 6 hours,< 2%
same,maximal uptake by SQ-20B cells,SQ-20B cells; at 12 hours,approximately 4%
